Eight compounds from patent US12161115B2, “Herbicidal compounds” (SYNGENTA CROP PROTECTION AG, priority 2019, dated 2024) can be followed below.

Type in all cases: in vivo
What all share (conditions): 250 g/Ha, evaluated after 13 days

In assay [1] the test system is Avena fatua (AVEFA). In words: Pre-emergence herbicidal glasshouse test. Here is the method:
(§1) Seeds of a variety of test species are sown in standard soil in pots (Lolium perenne (LOLPE), Setaria faberi (SETFA), Alopecurus myosuroides (ALOMY), Echinochloa crus-galli (ECHCG), Avena fatua (AVEFA)). After cultivation for one day (pre-emergence) or after 8 days cultivation (post-emergence) under controlled conditions in a glasshouse (at 24/16° C., day/night; 14 hours light; 65% humidity), the plants are sprayed with an aqueous spray solution derived from the formulation of the technical active ingredient in acetone/water (50:50) solution containing 0.5% Tween 20 (polyoxyethelyene sorbitan monolaurate, CAS RN 9005-64-5). Compounds are applied at 250 g/h. The test plants are then grown in a glasshouse under controlled conditions in a glasshouse (at 24/16° C., day/night; 14 hours light; 65% humidity) and watered twice daily. After 13 days for pre and post-emergence, the test is evaluated for the percentage damage caused to the plant. The biological activities are shown in the following table on a five point scale (5=80-100%; 4=60-79%; 3=40-59%; 2=20-39%; 1=0-19%). NT=not tested.

For assay [2], the system named is Alopecurus myosuroides (ALOMY). In words: Pre-emergence herbicidal glasshouse test. Here is the method: as §1
The test system of assay [3] is Setaria faberi (SETFA). In words: Pre-emergence herbicidal glasshouse test. The protocol:
as §1

For assay [4], the system named is Lolium perenne (LOLPE). In words: Pre-emergence herbicidal glasshouse test. Here is the method:
as §1

In assay [5] the test system is Echinochloa crus-galli (ECHCG). In words: Pre-emergence herbicidal glasshouse test. The protocol:
as §1

For assay [6], the system named is Avena fatua (AVEFA). In words: Post-emergence herbicidal glasshouse test. The protocol:
as §1

Assay [7] has as its system Alopecurus myosuroides (ALOMY). In words: Post-emergence herbicidal glasshouse test. Here is the method: as §1
Assay [8] deals with Setaria faberi (SETFA). In words: Post-emergence herbicidal glasshouse test. Here is the method: as §1
The subject of assay [9] is Lolium perenne (LOLPE). In words: Post-emergence herbicidal glasshouse test. Here is the method: as §1
The test system of assay [10] is Echinochloa crus-galli (ECHCG). In words: Post-emergence herbicidal glasshouse test. The protocol: as §1

In the case of `CC#Cc1cc(C)c(C2C(=O)CC3(CCN(C(=O)C(C)=NOCCOC)CC3)CC2=O)c(C)c1` [Compound A11], the “percentage damage caused to the plant, five point scale, AVEFA” value (shortened to “percentage damage caused … AVEFA”) with Avena fatua (AVEFA) [1] is reported as 3 (3=40-59%); with Avena fatua (AVEFA) [6] it was 5 (5=80-100%). The “percentage damage caused to the plant, five point scale, ALOMY” value (shortened to “percentage damage caused … ALOMY”) in [2] and in [7] was 5 (5=80-100%) in each case. Moreover, the “percentage damage caused to the plant, five point scale, SETFA” value (shortened to “percentage damage caused … SETFA”) in the assay with Setaria faberi (SETFA) [3] and with Setaria faberi (SETFA) [8] was 5 (5=80-100%) in each case. Besides, the “percentage damage caused to the plant, five point scale, LOLPE” value (shortened to “percentage damage caused … LOLPE”) in the assay with Lolium perenne (LOLPE) [4] and in the assay with Lolium perenne (LOLPE) [9] was 5 (5=80-100%) in each case. Also, the “percentage damage caused to the plant, five point scale, ECHCG” value (shortened to “percentage damage caused … ECHCG”) in assay [5] and in assay [10] was 5 (5=80-100%) each time.
With `CC#Cc1cc(C)c(C2C(=O)CC3(CCN(C(=O)C(C)=NOCC#N)CC3)CC2=O)c(C)c1` [Compound A10], the “percentage damage caused … AVEFA” value with Avena fatua (AVEFA) [1] is 1 (1=0-19%); with Avena fatua (AVEFA) [6] it was 5 (5=80-100%). For the same compound, the “percentage damage caused … ALOMY” value in assay [2] is listed as 4 (4=60-79%); in assay [7], 5 (5=80-100%). Further, the figures for the “percentage damage caused … SETFA” value with Setaria faberi (SETFA) [3] and with Setaria faberi (SETFA) [8] were 4 (4=60-79%) and 5 (5=80-100%), respectively. The “percentage damage caused … LOLPE” value in the assay with Lolium perenne (LOLPE) [4] is recorded as 1 (1=0-19%); in the assay on Lolium perenne (LOLPE) [9] it was 5 (5=80-100%). Further, the “percentage damage caused … ECHCG” value in [5] is given as 4 (4=60-79%); in [10], 5 (5=80-100%).
Take `CC#Cc1cc(C)c(C2C(=O)CC3(CCN(C(=O)/C(C)=N/Oc4ccccn4)CC3)CC2=O)c(C)c1` [Compound A6, 9-(2,6-dimethyl-4-prop-1-ynyl-phenyl)-3-[(2E)-2-(2-pyridyloxyimino)propanoyl]-3-azaspiro[5.5]undecane-8,10-dione]: the “percentage damage caused … AVEFA” value in the assay with Avena fatua (AVEFA) [1] and with Avena fatua (AVEFA) [6] was 5 (5=80-100%) in each case. Besides, the “percentage damage caused … ALOMY” value in [2] and in assay [7] was 5 (5=80-100%) each time. In addition, the “percentage damage caused … SETFA” value with Setaria faberi (SETFA) [3] and in the assay on Setaria faberi (SETFA) [8] was 5 (5=80-100%) each time. Moreover, the “percentage damage caused … LOLPE” value with Lolium perenne (LOLPE) [4] and in the assay with Lolium perenne (LOLPE) [9] was 5 (5=80-100%) throughout. Besides, the “percentage damage caused … ECHCG” value in [5] and in [10] was 5 (5=80-100%) in each case.
For `CC#Cc1cc(C)c(C2C(=O)CC3(CCN(C(=O)C(C)=NOCC)CC3)CC2=O)c(C)c1` [Compound A2], the “percentage damage caused … AVEFA” value in the assay with Avena fatua (AVEFA) [1] and with Avena fatua (AVEFA) [6] was 5 (5=80-100%) in each case. Also, the “percentage damage caused … ALOMY” value in assay [2] and in assay [7] was 5 (5=80-100%) throughout. Also, the “percentage damage caused … SETFA” value in the assay with Setaria faberi (SETFA) [3] and in the assay with Setaria faberi (SETFA) [8] was 5 (5=80-100%) each time. In addition, the “percentage damage caused … LOLPE” value in the assay on Lolium perenne (LOLPE) [4] and in the assay with Lolium perenne (LOLPE) [9] was 5 (5=80-100%) in each case. For the same compound, the “percentage damage caused … ECHCG” value in [5] and in assay [10] was 5 (5=80-100%) each time.
As for `CC#Cc1cc(C)c(C2C(=O)CC3(CCN(C(=O)/C(C)=N/O)CC3)CC2=O)c(C)c1` [Compound A4], the “percentage damage caused … AVEFA” value in the assay with Avena fatua (AVEFA) [1] and with Avena fatua (AVEFA) [6] was 5 (5=80-100%) in each case. In addition, the “percentage damage caused … ALOMY” value in assay [2] and in assay [7] was 5 (5=80-100%) each time. The “percentage damage caused … SETFA” value in the assay on Setaria faberi (SETFA) [3] and with Setaria faberi (SETFA) [8] was 5 (5=80-100%) throughout. In addition, the “percentage damage caused … LOLPE” value in the assay with Lolium perenne (LOLPE) [4] and in the assay on Lolium perenne (LOLPE) [9] was 5 (5=80-100%) in each case. For the same compound, the “percentage damage caused … ECHCG” value in [5] and in assay [10] was 5 (5=80-100%) throughout.
Regarding `CC#Cc1cc(C)c(C2C(=O)CC3(CCN(C(=O)/C(C)=N/OC4CCOCC4)CC3)CC2=O)c(C)c1` [Compound A9], the “percentage damage caused … AVEFA” value with Avena fatua (AVEFA) [1] is recorded as 2 (2=20-39%); in the assay with Avena fatua (AVEFA) [6] it was 5 (5=80-100%). The “percentage damage caused … ALOMY” value in [2] and in assay [7] was 5 (5=80-100%) in each case. Moreover, the “percentage damage caused … SETFA” value in the assay with Setaria faberi (SETFA) [3] is 4 (4=60-79%); in the assay on Setaria faberi (SETFA) [8] it was 5 (5=80-100%). The “percentage damage caused … LOLPE” value in the assay with Lolium perenne (LOLPE) [4] is recorded as 3 (3=40-59%); in the assay with Lolium perenne (LOLPE) [9], 4 (4=60-79%). Further, the “percentage damage caused … ECHCG” value is on record as 3 (3=40-59%) in assay [5] and 5 (5=80-100%) in [10].
Take `CC#Cc1cc(C)c(C2C(=O)CC3(CCN(C(=O)/C(=N\OC)C(C)(C)C)CC3)CC2=O)c(C)c1` [Compound A7]: the “percentage damage caused … AVEFA” value in the assay on Avena fatua (AVEFA) [1] was 2 (2=20-39%); with Avena fatua (AVEFA) [6], 3 (3=40-59%). In addition, the “percentage damage caused … ALOMY” value in assay [2] and in assay [7] was 4 (4=60-79%) each time. Moreover, the “percentage damage caused … SETFA” value in the assay with Setaria faberi (SETFA) [3] and in the assay on Setaria faberi (SETFA) [8] was 5 (5=80-100%) each time. For the same compound, the “percentage damage caused … LOLPE” value in the assay with Lolium perenne (LOLPE) [4] and in the assay on Lolium perenne (LOLPE) [9] was 5 (5=80-100%) in each case. The “percentage damage caused … ECHCG” value in assay [5] and in assay [10] was 5 (5=80-100%) each time.
In the case of `CC#Cc1cc(C)c(C2C(=O)CC3(CCN(C(=O)/C(C)=N\O)CC3)CC2=O)c(C)c1` [Compound A5], the “percentage damage caused … AVEFA” value with Avena fatua (AVEFA) [1] and in the assay with Avena fatua (AVEFA) [6] was 5 (5=80-100%) each time. Also, the “percentage damage caused … ALOMY” value in [2] is reported as 4 (4=60-79%); in [7], 5 (5=80-100%). In addition, the “percentage damage caused … SETFA” value in the assay on Setaria faberi (SETFA) [3] and with Setaria faberi (SETFA) [8] was 5 (5=80-100%) in each case. Also, the “percentage damage caused … LOLPE” value in the assay on Lolium perenne (LOLPE) [4] and in the assay on Lolium perenne (LOLPE) [9] was 5 (5=80-100%) in each case. In addition, the “percentage damage caused … ECHCG” value in assay [5] and in [10] was 5 (5=80-100%) each time.
